The source made the active and inactive calls. The calls are words filed in the database; no cut-off is given here.

Consider eight molecules from ChEMBL document CHEMBL5113400, “Design, synthesis, and biological evaluation of trizole-based heteroaromatic derivatives as Bcr-Abl kinase inhibitors” (Eur J Med Chem, 2022).

Series [1] concerns K562/Adr. Description: Antiproliferative activity against human Adriamycin-resistant K562/Adr cells assessed as inhibition of cell growth incubated for 48 hrs by MTT assay. In kind it is functional, cell-based.
For series [2], the system named is BaF3. Description: Antiproliferative activity against mouse BaF3 cells assessed as inhibition of cell growth incubated for 72 hrs by CellTiter-Glo luminescent assay. In kind it is functional, cell-based. To be noted: BaF3, 72 h.
Series [3] relates to BaF3. Description: Antiproliferative activity against mouse BaF3 cells expressing wild type Bcr-Abl assessed as inhibition of cell growth incubated for 72 hrs by CellTiter-Glo luminescent assay. In kind it is functional, cell-based. The note with it: BaF3, 72 h.
For series [4], the system named is K-562R. Briefly: Antiproliferative activity against human K-562R cells expressing Bcr-Abl T315I mutant assessed as inhibition of cell growth incubated for 48 hrs by MTT assay. In kind it is functional, cell-based.
Series [5] deals with K562. Description: Antiproliferative activity against human K562 cells assessed as inhibition of cell growth incubated for 48 hrs by MTT assay. In kind it is functional, cell-based. To be noted: K562, 48 h.
The subject of series [6] is BaF3. Description: Antiproliferative activity against mouse BaF3 cells expressing Bcr-Abl T315I mutant assessed as inhibition of cell growth at 30 uM incubated for 72 hrs by CellTiter-Glo luminescent assay. In kind it is functional.
Series [7] has as its target Bcr/Abl fusion protein (Homo sapiens, UniProt P00519). Briefly: Inhibition of wild type Bcr-Abl (unknown origin) incubated for 1 hr in presence of ATP by ADP-Glo kinase assay. In kind it is protein assay.
Series [8] has as its target Bcr/Abl fusion protein (Homo sapiens, UniProt P00519, T315I). Briefly: Inhibition of Bcr-Abl T315I mutant (unknown origin) incubated for 1 hr in presence of ATP by ADP-Glo kinase assay. In kind it is protein assay.
Series [9] has as its system K562. Briefly: Induction of apoptosis in human K562 cells assessed as late apoptotic cells at 5 uM incubated for 48 hrs by Annexin V-FITC/PI staining based flow cytometry analysis (Rvb= 2.89%). In kind it is functional.
In series [10] the test system is K562. Briefly: Induction of cell cycle arrest in human K562 cells assessed as accumulation at S phase at 1 to 10 uM incubated for 48 hrs by PI staining based flow cytometry. In kind it is functional. To be noted: dose 1-10 µM.
Series [11] has as its system K562. Description: Induction of apoptosis in human K562 cells assessed as viable cells at 10 uM incubated for 48 hrs by Annexin V-FITC/PI staining based flow cytometry analysis (Rvb= 80.56%). In kind it is functional. To be noted: read-out: Activity.
In series [12] the test system is K562. Description: Induction of apoptosis in human K562 cells assessed as early apoptotic cells at 10 uM incubated for 48 hrs by Annexin V-FITC/PI staining based flow cytometry analysis (Rvb= […]). In kind it is functional.
The test system of series [13] is K562. Briefly: Induction of apoptosis in human K562 cells assessed as necrotic cells at 5 uM incubated for 48 hrs by Annexin V-FITC/PI staining based flow cytometry analysis (Rvb= 0.29%). In kind it is functional.
Series [14] has as its system K562. Briefly: Induction of apoptosis in human K562 cells assessed as late apoptotic cells at 10 uM incubated for 48 hrs by Annexin V-FITC/PI staining based flow cytometry analysis (Rvb= 2.89%). In kind it is functional.
Series [15] has as its target T1, Signal transducer and activator of transcription 5A (Homo sapiens) (UniProt P42229).
T1 sequence (whole entry): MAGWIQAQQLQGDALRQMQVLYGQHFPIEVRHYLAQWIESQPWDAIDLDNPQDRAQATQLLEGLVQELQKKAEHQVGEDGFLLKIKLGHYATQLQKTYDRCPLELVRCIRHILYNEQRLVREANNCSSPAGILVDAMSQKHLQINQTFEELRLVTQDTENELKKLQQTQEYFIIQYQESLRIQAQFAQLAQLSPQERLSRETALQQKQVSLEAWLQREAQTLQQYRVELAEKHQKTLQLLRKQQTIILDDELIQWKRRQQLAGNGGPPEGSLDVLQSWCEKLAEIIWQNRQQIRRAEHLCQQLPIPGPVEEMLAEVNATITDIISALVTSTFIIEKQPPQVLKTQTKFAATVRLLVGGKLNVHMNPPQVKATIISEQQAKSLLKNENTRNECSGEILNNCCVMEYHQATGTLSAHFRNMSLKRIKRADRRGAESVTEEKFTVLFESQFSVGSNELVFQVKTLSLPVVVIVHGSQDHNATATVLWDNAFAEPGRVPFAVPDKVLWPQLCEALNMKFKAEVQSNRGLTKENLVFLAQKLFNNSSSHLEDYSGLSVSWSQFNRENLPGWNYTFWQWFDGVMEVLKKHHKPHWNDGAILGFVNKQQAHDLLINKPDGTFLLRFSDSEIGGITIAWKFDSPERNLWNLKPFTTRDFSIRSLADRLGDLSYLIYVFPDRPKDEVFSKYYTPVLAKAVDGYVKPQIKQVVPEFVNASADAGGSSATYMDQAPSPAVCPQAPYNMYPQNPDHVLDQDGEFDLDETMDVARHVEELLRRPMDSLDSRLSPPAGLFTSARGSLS
Briefly: Inhibition of STAT5 phosphorylation at Tyr694 residue in human K562 cells expressing wild type Bcr-Abl at 0.1 to 15 uM measured after 48 hrs by Western blot analysis. In kind it is cell-based. The note with it: dose 0.1-15 µM, DDE = dose-dependent effect.

Series [16] has as its system K562. Description: Induction of apoptosis in human K562 cells assessed as early apoptotic cells at 5 uM incubated for 48 hrs by Annexin V-FITC/PI staining based flow cytometry analysis (Rvb= […]). In kind it is functional.
The test system of series [17] is HEK293. Briefly: Cytotoxicity against human HEK293 cells assessed as inhibition of cell growth upto 100 uM incubated for 48 hrs by MTT assay. In kind it is toxicity, cell-based. The note with it: hek293, 48 h.
In series [18] the test system is K562. Description: Induction of apoptosis in human K562 cells assessed as viable cells at 5 uM incubated for 48 hrs by Annexin V-FITC/PI staining based flow cytometry analysis (Rvb= 80.56%). In kind it is functional. The note with it: read-out: Activity.
In series [19] the test system is K562. Description: Induction of apoptosis in human K562 cells assessed as necrotic cells at 1 uM incubated for 48 hrs by Annexin V-FITC/PI staining based flow cytometry analysis (Rvb= 0.29%). In kind it is functional.
Series [20] relates to K562. Briefly: Induction of apoptosis in human K562 cells assessed as early apoptotic cells at 1 uM incubated for 48 hrs by Annexin V-FITC/PI staining based flow cytometry analysis (Rvb= […]). In kind it is functional.
In series [21] the test system is K562. Briefly: Induction of apoptosis in human K562 cells assessed as late apoptotic cells at 1 uM incubated for 48 hrs by Annexin V-FITC/PI staining based flow cytometry analysis (Rvb= 2.89%). In kind it is functional.
Series [22] concerns K562. Briefly: Induction of cell cycle arrest in human K562 cells assessed as reduction in G0/G1 phase at 1 to 10 uM incubated for 48 hrs by PI staining based flow cytometry. In kind it is functional. The note with it: dose 1-10 µM.
Series [23] has as its system K562. Description: Induction of apoptosis in human K562 cells assessed as necrotic cells at 10 uM incubated for 48 hrs by Annexin V-FITC/PI staining based flow cytometry analysis (Rvb= 0.29%). In kind it is functional.
For series [24], the system named is K562. Briefly: Induction of apoptosis in human K562 cells assessed as viable cells at 1 uM incubated for 48 hrs by Annexin V-FITC/PI staining based flow cytometry analysis (Rvb= 80.56%). In kind it is functional. To be noted: read-out: Activity.
The target of series [25] is Bcr/Abl fusion protein (Homo sapiens) (UniProt P00519+P11274). Description: Inhibition of Bcr-Abl phosphorylation at Tyr245 residue in human K562 cells expressing wild type Bcr-Abl at 5 to 15 uM measured after 48 hrs by Western blot analysis. To be noted: dose 5-15 µM. In kind it is cell-based.
The test system of series [26] is EA.hy 926. Description: Cytotoxicity against human EA.hy 926 cells assessed as inhibition of cell growth upto 100 uM incubated for 48 hrs by MTT assay. In kind it is toxicity, cell-based. The note with it: ea.hy 926, 48 h.
The subject of series [27] is BaF3. Briefly: Antiproliferative activity against mouse BaF3 cells expressing Bcr-Abl T315I mutant assessed as inhibition of cell growth incubated for 72 hrs by CellTiter-Glo luminescent assay. In kind it is functional, cell-based. The note with it: BaF3, 72 h.

On to `Cc1ccc(NC(=O)c2ccc(CN3CCN(C)CC3)cc2)cc1Nc1nccc(-c2cccnc2)n1` [IMATINIB], for which the IC50 in [1] was determined as 13500 nM; in series [2], 10000 nM; in series [3], 230 nM; in [4], 93000 nM; in [5], 1100 nM.

With `Cc1ccc(C(=O)Nc2ccc(CN3CCN(C)CC3)c(C(F)(F)F)c2)cc1C#Cc1cnc2cccnn12` [PONATINIB], the IC50 in series [4] was determined as 80 nM.

For the molecule `CC(=O)Nc1n[nH]c2cc(-c3cn([C@@H]4CN[C@H](C(=O)Nc5ccc(Br)cc5)C4)nn3)ccc12`, the IC50 in [1] was 1000 nM; in series [7] it was 5.85 nM; in series [5], 3830 nM; in series [8], 343 nM. In addition, the inhibition at 30 µM in [6] is 21.8%.

With `O=C(Nc1nc2ccc(-c3cn([C@@H]4CN[C@H](C(=O)Nc5ccc(Br)cc5)C4)nn3)nc2s1)C1CC1`, the IC50 amounted to 48200 nM in [1], 10.4 nM in series [7], 8160 nM in series [5] and 33.3 nM in series [8]. In addition, the inhibition at 30 µM in series [6] was 66.5%.

In the case of `CC(=O)Nc1n[nH]c2cc(-c3cn([C@@H]4CN[C@H](C(=O)Nc5ccc(Cl)cc5Cl)C4)nn3)ccc12`, the IC50 in series [1] was found to be 1230 nM; in series [7] it was 3.15 nM; in series [5], 2090 nM; in series [8], 135 nM. Also, in series [6], the inhibition at 30 µM was determined as 25.5%.

Take `CCN1CCN(c2cc(NC(=O)[C@@H]3C[C@H](n4cc(-c5ccc6c(N)n[nH]c6c5)nn4)CN3)ccc2Cl)CC1`: the IC50 in series [1] turned out to be 12600 nM; in series [7], 8.71 nM; in [5], 180 nM; in series [8], 84.8 nM. For the same molecule, in [6], the inhibition at 30 µM stood at 20%.

`CS(=O)(=O)Nc1ccc(-c2cn([C@@H]3CN[C@H](C(=O)Nc4ccc(Cl)c(C(F)(F)F)c4)C3)nn2)cn1`: the Activity in [9] is reported as 3.19%; in series [12], 23.79%; in series [13], 0.4%; in series [14], 4.11%; in series [16], 17.14%; in series [17] it was “Non-Toxic”. For the same molecule, the Activity in series [19] is listed as 0.19%; in series [20], 18.03%; in [21], 2.43%; in series [23], 0.28%; in [26], “Non-Toxic”. Besides, the result in series [10] and in series [22] was Active. In addition, the viability at 10 µM in series [11] worked out at 71.8%. For the same molecule, the inhibition entry in series [15] is “Dde”. In addition, the IC50 in series [1] is 4720 nM; in series [2], more than 20000 nM; in [7], 0.49 nM; in series [3], 6960 nM; in series [4], 13400 nM; in [5], 5060 nM. The IC50 in [8] was 111 nM; in series [27], 4130 nM. In series [6], the inhibition at 30 µM turned out to be 99.7%. In addition, the viability at 5 µM in series [18] turned out to be 79.3%. Moreover, the viability at 1 µM in [24] worked out at 79.3%. The inhibition result in [25] was “Active”.

For `O=C(NC1CC1)c1cncc(-c2cn([C@@H]3CN[C@H](C(=O)Nc4ccc(Cl)c(C(F)(F)F)c4)C3)nn2)c1`, the IC50 in [1] turned out to be 175000 nM; in [7], 1.94 nM; in [5], 820 nM; in series [8], 31.5 nM. Besides, the inhibition at 30 µM in series [6] came out at 24.6%.
